Data published in ChEMBL document CHEMBL1201862, “PubChem BioAssay data set” (2004).
The source made the active and inactive calls. Rule as the data show it: actives have a measured EC50 and inactives only a lower limit.

Tests used:
[1] = cytotoxicity toward NIH3T3 fibroblasts, dose response, counter-screen, cell-based, ATP luminescence, mouse fibroblasts (AID 2010); assay type: functional;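 also: cells exposed to compound for about 90 hours before reading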
[2] = inhibitors of intracellular T. cruzi replication, confirmation, NIH3T3 host cells, beta-gal luminescence (AID 2044); assay type: functional, cell-based;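 also: intracellular parasites grown in NIH/3T3 mouse fibroblasts as host cells; luminescent beta-galactosidase reporter signal from transgenic T. cruzi replicating inside host cells; inhibitors lower the luminescence signal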
[3] = molecular target: T1, Heat shock factor protein 1 (Mus musculus, UniProt P38532); assay: inhibition of MG132-induced HSE-luciferase signal, confirmation, cell-based, NIH3T3, luminescence, dose retest (AID 2382); assay type: functional;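 also: NIH3T3 fibroblasts with HSF1-driven luciferase reporter stressed by proteasome inhibitor MG132; luminescence from HSF1-driven luciferase expression after 8 hours of MG132 stress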
T1 sequence (P38532 whole entry): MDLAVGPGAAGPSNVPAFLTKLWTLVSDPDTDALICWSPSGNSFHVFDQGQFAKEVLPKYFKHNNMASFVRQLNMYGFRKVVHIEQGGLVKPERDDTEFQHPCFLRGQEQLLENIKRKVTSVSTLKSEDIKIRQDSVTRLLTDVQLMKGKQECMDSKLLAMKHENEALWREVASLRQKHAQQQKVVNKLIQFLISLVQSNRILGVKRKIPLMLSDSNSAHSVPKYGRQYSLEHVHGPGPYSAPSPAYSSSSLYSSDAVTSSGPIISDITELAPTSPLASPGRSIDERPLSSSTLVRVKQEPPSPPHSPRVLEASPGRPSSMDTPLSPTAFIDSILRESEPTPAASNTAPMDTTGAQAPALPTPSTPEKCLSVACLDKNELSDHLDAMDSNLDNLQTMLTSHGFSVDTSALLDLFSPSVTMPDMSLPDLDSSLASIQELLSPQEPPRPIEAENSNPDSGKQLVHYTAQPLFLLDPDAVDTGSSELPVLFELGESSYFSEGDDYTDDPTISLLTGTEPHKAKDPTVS

## CCOc1ccc(C2Nc3ccc4ccccc4c3-c3c2c(=O)oc2ccccc32)cc1 (stereo not drawn)
[1]
  EC50: > 60 µM (not active)
[2]
  EC50: 1.26 µM (active)

## O=C(c1cccc([N+](=O)[O-])c1)N1CCc2ccccc21
[3]
  EC50: > 195 µM (not active)

## Cc1cccc(C)c1NC(=O)N1C(C(=O)O)CSC1C(=O)O (stereo not drawn)
[3]
  EC50: > 195 µM (not active)

## COc1cccc(CCNCc2cccc(C(F)(F)F)c2)c1
[1]
  EC50: > 30 µM (not active)
[2]
  EC50: 0.97 µM (active)

## CCOC(=O)C1=C(N)OC2=C(C(=O)CC(C)(C)C2)C1c1ccccc1OCC#N (stereo not drawn)
[3]
  EC50: > 195 µM (not active)

## CC12CCC(C(=O)N3CCN(C(c4ccccc4)c4ccccc4)CC3)(OC1=O)C2(C)C (stereo not drawn)
[1]
  EC50: > 60 µM (inconclusive)
[2]
  EC50: 1.56 µM (active)

## NC(=O)COC(=O)c1cc(O)nc2ccccc12
[3]
  EC50: > 195 µM (not active)

## CCN(CC)CCCNC(=O)C1CCC(CNS(=O)(=O)c2ccc(Cl)cc2)CC1 (stereo not drawn)
[3]
  EC50: > 195 µM (not active)

## COc1cc(NC(=O)c2ccco2)c(OC)cc1NC(=O)Nc1cccc(Cl)c1
[1]
  EC50: > 60 µM (not active)
[2]
  EC50: 1.79 µM (active)

## CC(=O)N(C)C1=C(O)C(=O)c2ccccc2C1=O
[3]
  EC50: > 195 µM (not active)

## CC(=O)Nc1cc(C(=O)N(C)Cc2ccco2)ccc1Sc1ccc(C)cc1
[3]
  EC50: > 195 µM (not active)

## CSCc1nnc2n1-c1ccc(Cl)cc1C(c1ccccc1)=NC2
[3]
  EC50: > 195 µM (not active)

## CCn1c(COc2ccc(C)cc2)nnc1SCC(=O)Nc1ccc2c(c1)OCCO2
[3]
  EC50: > 195 µM (not active)

## COc1ccc(N2CCN(C(=O)CCCN3C(=O)c4cccc5cccc(c45)C3=O)CC2)cc1
[1]
  EC50: > 60 µM (inconclusive)
[2]
  EC50: 2.45 µM (active)

## O=[N+]([O-])c1ccc(OCCN2CCNCC2)cc1
[1]
  EC50: > 60 µM (not active)
[2]
  EC50: 0.132 µM (active)

## Cc1ccccc1OCCC(=O)Nc1ccc(S(=O)(=O)N(C)C2CCN(C)CC2)cc1
[1]
  EC50: > 30 µM (not active)
[2]
  EC50: 0.324 µM (active)

## CCc1cccc(CC)c1N=C(S)N1CCn2cccc2C1c1cccnc1 (stereo not drawn)
[3]
  EC50: > 195 µM (not active)

## COc1ccccc1C(O)(C(=O)N(NC(C)=O)c1ccccc1)c1ccccc1OC
[3]
  EC50: > 195 µM (not active)

## CCCCCCCCN1[C@@H](CC(=O)OCC)c2ccc(C(F)(F)F)cc2S1(=O)=O
[1]
  EC50: 37.8 µM (active)
[2]
  EC50: 0.87 µM (active)

## O=C1[C@H]2[C@@H](c3ccc(Cl)cc3)N3C(=O)N(c4cccc(F)c4)C(=O)[C@@]3(Cc3ccc(Cl)cc3)[C@H]2C(=O)N1C1CCCCC1
[1]
  EC50: > 30 µM (not active)
[2]
  EC50: 1.21 µM (active)

## CCC(N=C(S)NCc1ccccc1)C(=O)O (stereo not drawn)
[3]
  EC50: > 195 µM (not active)

## Cc1cccc(NC(S)=NC(NC(=O)OCc2ccccc2)C(Cl)(Cl)Cl)c1 (stereo not drawn)
[1]
  EC50: > 60 µM (not active)
[2]
  EC50: 3.39 µM (active)

## CN1CCN(c2ccc([N+](=O)[O-])c(N3CCCCC3)c2)CC1
[1]
  EC50: > 30 µM (not active)
[2]
  EC50: 0.661 µM (active)

## CCCCNC(=O)C(c1ccc(OCC(=O)OC)c(C(=O)OC)c1)N(CCc1c[nH]c2ccccc12)C(=O)CCCCCN1C(=O)NC(c2ccc(-c3ccccc3)cc2)C(C(=O)OCc2ccccc2)=C1C (stereo not drawn)
[3]
  EC50: > 195 µM (not active)

## C=CCc1c(C)nc(-c2ccccc2)nc1N/N=C/c1ccncc1
[1]
  EC50: 6.59 µM (active)
[2]
  EC50: 0.941 µM (active)

## Cc1ccc(S(=O)(=O)N2CCN(CC(=O)N/N=C\c3ccncc3)CC2)cc1
[3]
  EC50: > 195 µM (not active)

## CC/C(=N\NS(=O)(=O)c1ccc(C)cc1)c1ccco1
[3]
  EC50: > 195 µM (not active)

## CCCOc1ccc(CC(=O)N/N=C\c2ccc(F)cc2)cc1
[3]
  EC50: > 195 µM (not active)

## CC(O/N=C\c1ccccc1O)C(=O)Nc1ccccc1C(=O)N1CCOCC1 (stereo not drawn)
[3]
  EC50: > 195 µM (not active)

## O=C1c2ccccc2C2=Nc3ccccc3SC(c3cccc(F)c3)C12 (stereo not drawn)
[1]
  EC50: > 60 µM (not active)
[2]
  EC50: 1.27 µM (active)
